Test results as given in patent publication US7803803B2, “Tetrahydrofuro[3,2-B] pyrrol-3-ones as cathepsin K inhibitors” (Amura Therapeutics Limited, priority 2007, dated 2010).

Assays:
[1] = target: T1, cathepsin K (Homo sapiens, UniProt P43235); assay: In vitro cathepsin Ki inhibition measurements; format: biochemical; design: purchased B. Turk, Josef Stefan Institute, Ljubljana, Slovenia; details: human recombinant cathepsin K; read-out: In vitro Ki (nM) vs Cath K
T1 sequence (P43235 115-329): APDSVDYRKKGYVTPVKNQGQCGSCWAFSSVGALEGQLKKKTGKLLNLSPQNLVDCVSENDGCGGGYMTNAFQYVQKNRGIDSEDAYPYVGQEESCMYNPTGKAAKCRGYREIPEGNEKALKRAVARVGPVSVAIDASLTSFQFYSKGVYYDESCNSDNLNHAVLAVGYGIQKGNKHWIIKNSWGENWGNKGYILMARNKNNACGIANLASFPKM
Experimental: Stock solutions of substrate or inhibitor were made up to 10 mM in 100% dimethylsulfoxide (DMSO) (Rathburns, Glasgow, U.K.) and diluted as appropriately required. In all cases the DMSO concentration in the assays was maintained at less than 1% (vol./vol.). The equilibrium inhibition constants (Ki^SS) for each compound were measured under steady-state conditions monitoring enzyme activity as a function of inhibitor concentration. The values were calculated on the assumption of pure competitive behaviour (Cornish-Bowden, A. Fundamentals of enzyme kinetics Portland Press; 1995, 93-128). Human recombinant cathepsin K (0.25 nM final; B. Turk, Josef, Stefan Institute, Ljubljana, Slovenia), was routinely assayed in 100 mM sodium acetate; pH 5.5 containing 1 mM EDTA, 10 mM L-cysteine and 1.8 μM Z-Leu-Arg-AMC ([S]═KM).
The apparent inhibition constant (Ki) for each compound was determined on the basis that inhibition was reversible and occurred by a pure-competitive mechanism. The Ki values were calculated, from the dependence of enzyme activity as a function of inhibitor concentration, by direct regression analysis (Prism v 3.02) using Equation 2 (Cornish-Bowden, A., 1995).
In situations where the apparent dissociation constant (Ki^app) approached the enzyme concentrations, the Ki^app values were calculated using a quadratic solution in the form described by Equation 3 (Morrison, J. F. Trends Biochem. Sci., 7, 102-105, 1982; Morrison, J. F. Biochim. Biophys. Acta, 185, 269-286, 1969; Stone, S. R. and Hofsteenge, J. Biochemistry, 25, 4622-4628, 1986).
Curves were fitted by non-linear regression analysis (Prism) using a fixed value for the enzyme concentration. Equation 4 was used to account for the substrate kinetics, where ‘Ki’ is the inhibition constant, ‘[So]’ is the initial substrate concentration and ‘KM^app’ is the apparent macroscopic binding (Michaelis) constant for the substrate (Morrison, 1982).

[2] = Plasma incubations (human plasma stability); format: in vitro ADME; details: 37° C. Also: tested at 25 µM.
Experimental: Aliquots were removed at 2 and 60 minutes and quenched with an equal volume of cold acetonitrile. After mixing vigorously, the precipitated protein matter was removed by filtration (Multiscreen Solvinert filter plates, Millipore, Bedford, Mass., USA) and the filtrate analysed by reverse phase HPLC with mass spectrometric detection, using single ion monitoring of the [M+H]^+ species. Metabolic turnover was determined by comparison of peak areas from the ion chromatograms of the parent compound at 2 and 60 minutes and expressed as percent remaining at 1 hour.

[3] = LogD determinations; format: physicochemical; details: Ion-count method; for logD at 1 h: 1-octanol/phosphate buffered saline, pH 7.4, pH 7.4
Experimental: LogD(PBS) determinations were performed in 96 well microtitre plates using a miniaturised “shake-flask” method. […] The plates were then capped and mixed vigorously for 1 hour on a microtitre plate shaker, after which they were left to stand, allowing the PBS and octanol phases to separate. The PBS layer was analysed by reverse phase HPLC with mass spectrometric detection, using single ion monitoring of the [M+H]^+ species.
Where AUCstd and AUCpbs are the peak areas from the standard and test ion chromatograms respectively.

[4] = test system: human osteoclasts; assay: Human osteoclast resorption assay; format: cell-based; details: for inhibition at 1 µM: Homo sapiens, Osteoclast, 48 h, 1 □ M, read-out: Cell-based % Inh. @ 1 □ M Human; for IC50: read-out: Cell-based Human IC50
Experimental: Bone resorption was studied using a model where human osteoclast precursor cells were cultured on bovine bone slices for 9 days and allowed to differentiate into bone-resorbing osteoclasts. The formed mature osteoclasts were then allowed to resorb bone. The assay was performed by Pharmatest Services Ltd, Itäinen Pitkakatu 4C, Turku, Finland. After the culture period, bone collagen degradation products were quantified from the culture medium as an index of bone resorption. Inhibitor compounds were added into the cell cultures after the differentiation period and their effects on the resorbing activity of mature osteoclasts were determined. The studies included a baseline group without added compounds and a positive control group where a potent cathepsin K inhibitor E-64 was added.
Human peripheral blood monocytes were suspended to culture medium and allowed to attach to bovine bone slices. The bone slices were transferred into 96-well tissue culture plates containing culture medium with appropriate amounts of important growth factors favouring osteoclast differentiation, including M-CSF, RANK-ligand and TGF-[…]. The cells were incubated in a CO2 incubator in humidified atmosphere of 95% air and 5% carbon dioxide at 37° C. At day 7 when osteoclast differentiation was complete, the culture medium was replaced with culture medium containing conditions favouring osteoclast activity. The cell culture was continued for an additional 2 days, during which the formed mature osteoclasts were allowed to resorb bone in the presence of vehicle, control inhibitor (E64) or test compounds. At the end of the culture, bone collagen degradation products released into the culture medium were determined using a commercially available ELISA method (CrossLaps® for culture, Nordic Bioscience, Herlev, Denmark) as an index of bone resorption (see Bagger, Y. Z. et al, J. Bone. Miner. Res. 14 (suppl. 1), S370).

| SMILES | Ki [1] [nM] | Human Plasma Stability % rem. @ 1 h [2] [%] | logD at 1 h [3] | LogD pH 7.4 [3] | inhibition at 1 µM [4] [%] | IC50 [4] [nM] |
| --- | --- | --- | --- | --- | --- | --- |
| CO[C@@H]1CN(C(=O)[C@H](CC(C)(C)C)NC(=O)c2ccc(N3CCN(C)CC3)cc2)[C@@H]2C(=O)CO[C@@H]21 [Example 4, N—((S)-1-((3aS,6R,6aS)-6-methoxy-3-oxodihydro-2H-furo[3,2-b]pyrrol-4(5H,6H,6aH)-yl)-4,4-dimethyl-1-oxopentan-2-yl)-4-(4-methylpiperazin-1-yl)benzamide] | 5.6 | 89 | > 0.8 | 0.84 | 63 to 88 |  |
| CO[C@H]1CN(C(=O)[C@H](CC(C)(C)C)NC(=O)c2ccc(N3CCN(C)CC3)cc2)[C@@H]2C(=O)CO[C@H]12 [Example 2, N—((S)-1-((3aS,6S,6aS)-6-methoxy-3-oxodihydro-2H-furo[3,2-b]pyrrol-4(5H,6H,6aH)-yl)-4,4-dimethyl-1-oxopentan-2-yl)-4-(4-methylpiperazin-1-yl)benzamide] | 6.3 | 93 | > 0.8 | 1.00 | 63 to 88 |  |
| CCN1CCN(c2ccc(C(=O)N[C@@H](CC(C)(C)C)C(=O)N3C[C@@H](OC)[C@H]4OCC(=O)[C@H]43)cc2)CC1 [Example 8, 4-(4-ethylpiperazin-1-yl)-N—((S)-1-((3aS,6R,6aS)-6-methoxy-3-oxodihydro-2H-furo[3,2-b]pyrrol-4(5H,6H,6aH)-yl)-4,4-dimethyl-1-oxopentan-2-yl)benzamide] | 9.2 | 92 | > 0.8 | 1.09 | 63 to 88 |  |
| COCCN1CCN(c2ccc(C(=O)N[C@@H](CC(C)C)C(=O)N3C[C@@H](OC)[C@H]4OCC(=O)[C@H]43)cc2)CC1 [Example 28, N—((S)-1-((3aS,6R,6aS)-6-methoxy-3-oxodihydro-2H-furo[3,2-b]pyrrol-4(5H,6H,6aH)-yl)-4-methyl-1-oxopentan-2-yl)-4-(4-(2-methoxyethyl)piperazin-1-yl)benzamide] | 14.4 | 88 |  | 0.76 | 25 to 54 |  |
| CCCN1CCC(c2ccc(C(=O)N[C@@H](CC(C)(C)C)C(=O)N3C[C@@H](OC)[C@H]4OCC(=O)[C@H]43)cc2)CC1 [Example 38, N—((S)-1-((3aS,6R,6aS)-6-methoxy-3-oxodihydro-2H-furo[3,2-b]pyrrol-4(5H,6H,6aH)-yl)-4,4-dimethyl-1-oxopentan-2-yl)-4-(1-propylpiperidin-4-yl)benzamide] | 8.2 | 99 | > 0.8 | 1.12 | 63 to 88 |  |
| COCCN1CCN(c2ccc(C(=O)N[C@@H](CC(C)C)C(=O)N3C[C@H](OC)[C@H]4OCC(=O)[C@H]43)cc2)CC1 [Example 27, N—((S)-1-((3aS,6S,6aS)-6-methoxy-3-oxodihydro-2H-furo[3,2-b]pyrrol-4(5H,6H,6aH)-yl)-4-methyl-1-oxopentan-2-yl)-4-(4-(2-methoxyethyl)piperazin-1-yl)benzamide] | 6.3 | 99 | > 0.8 | 1.23 | 63 to 88 |  |
| CCN1CCN(c2ccc(C(=O)N[C@H](C(=O)N3C[C@@H](OC)[C@H]4OCC(=O)[C@H]43)C3CCCC3)cc2)CC1 | 3.4 | 90.7 | 0.95 |  |  | 231 |
| COCCN1CCN(c2ccc(C(=O)N[C@@H](CC(C)C)C(=O)N3C[C@H](N)[C@H]4OCC(=O)[C@H]43)cc2)CC1 [Example 23, N—((S)-1-((3aS,6S,6aR)-6-amino-3-oxodihydro-2H-furo[3,2-b]pyrrol-4(5H,6H,6aH)-yl)-4-methyl-1-oxopentan-2-yl)-4-(4-(2-methoxyethyl)piperazin-1-yl)benzamide] | 11.2 | 88 |  | 0.55 | 25 to 54 |  |
| CCCN1CCN(c2ccc(C(=O)N[C@@H](CC(C)(C)C)C(=O)N3C[C@@H](OC)[C@H]4OCC(=O)[C@H]43)cc2)CC1 [Example 16, N—((S)-1-((3aS,6R,6aS)-6-methoxy-3-oxodihydro-2H-furo[3,2-b]pyrrol-4(5H,6H,6aH)-yl)-4,4-dimethyl-1-oxopentan-2-yl)-4-(4-propylpiperazin-1-yl)benzamide] | 3.7 | 97 |  | 1.69 | 63 to 88 |  |
| CO[C@@H]1CN(C(=O)[C@@H](NC(=O)c2ccc(N3CCN(C)CC3)cc2)C2CCCC2)[C@@H]2C(=O)CO[C@@H]21 | 4.9 | 91.8 | 0.75 |  |  | 637 |
| CCN1CCN(c2ccc(C(=O)N[C@@H](CC(C)C)C(=O)N3C[C@H](OC)[C@H]4OCC(=O)[C@H]43)cc2)CC1 [Example 5, 4-(4-ethylpiperazin-1-yl)-N—((S)-1-((3aS,6S,6aS)-6-methoxy-3-oxodihydro-2H-furo[3,2-b]pyrrol-4(5H,6H,6aH)-yl)-4-methyl-1-oxopentan-2-yl)benzamide] | 5.8 | 96 | > 0.8 | 1.05 | 63 to 88 |  |
| CO[C@@H]1CN(C(=O)[C@H](CC(C)(C)C)NC(=O)c2ccc(N3CCN(C(C)C)CC3)cc2)[C@@H]2C(=O)CO[C@@H]21 [Example 22, 4-(4-isopropylpiperazin-1-yl)-N—((S)-1-((3aS,6R,6aS)-6-methoxy-3-oxodihydro-2H-furo[3,2-b]pyrrol-4(5H,6H,6aH)-yl)-4,4-dimethyl-1-oxopentan-2-yl)benzamide] | 8.4 | 91 | > 0.8 | 1.2 | 63 to 88 |  |
| CO[C@H]1CN(C(=O)[C@H](CC(C)C)NC(=O)c2ccc(N3CCN(C)CC3)cc2)[C@@H]2C(=O)CO[C@H]12 [Example 1, N—((S)-1-((3aS,6S,6aS)-6-methoxy-3-oxodihydro-2H-furo[3,2-b]pyrrol-4(5H,6H,6aH)-yl)-4-methyl-1-oxopentan-2-yl)-4-(4-methylpiperazin-1-yl)benzamide] | 5.6 | 96 | > 0.8 | 1.18 | 63 to 88 |  |
| CCCN1CCN(c2ccc(C(=O)N[C@@H](CC(C)C)C(=O)N3C[C@@H](OC)[C@H]4OCC(=O)[C@H]43)cc2)CC1 [Example 15, N—((S)-1-((3aS,6R,6aS)-6-methoxy-3-oxodihydro-2H-furo[3,2-b]pyrrol-4(5H,6H,6aH)-yl)-4-methyl-1-oxopentan-2-yl)-4-(4-propylpiperazin-1-yl)benzamide] | 16.3 | 92 | > 0.8 | 1.34 | 63 to 88 |  |
| COCCN1CCN(c2ccc(C(=O)N[C@@H](CC(C)C)C(=O)N3C[C@@H](O)[C@H]4OCC(=O)[C@H]43)cc2)CC1 [Example 26, N—((S)-1-((3aS,6R,6aS)-6-hydroxy-3-oxodihydro-2H-furo[3,2-b]pyrrol-4(5H,6H,6aH)-yl)-4-methyl-1-oxopentan-2-yl)-4-(4-(2-methoxyethyl)piperazin-1-yl)benzamide] | 8.1 | 95 |  | 0.23 | 25 to 54 |  |
